The test system of data set [1] is C2C12 mouse skeletal myoblasts. The experiment in a line: Cell screening by Alizarin red staining (direct reprogramming of myoblasts into osteoblasts). It is filed as cell-based. Details: key to Alizarin red staining (osteoblasts): ++ (strong positive); + (weak positive); − (negative). The following applies: for Alizarin red staining (osteoblasts): C2C12 myoblasts treated 72 hours with compound, then osteogenic differentiation inducing medium 14 days, reversine 100 nM; for reprogramming potential in differentiation into osteoblasts: Alizarin red staining, result in words. As to the method:
A method for identifying compounds that induce cell reprogramming was based on a previous study (PMID: 23044010 and 18974773) on the myocyte-to-osteocyte conversion by bone formation induction and a previous reversine publication (Chen S 2004).
C2C12 mouse skeletal myoblasts were seeded in a 24-well cell culture dish at a density of 1×10^4 cells per well. 24 Hours after seeding, the compound of interest was added to three well at a concentration of […]. For a positive control, the cells were treated with 100 nM reversine or 2 μM BIO. The two compounds are known to induce the conversion of myoblasts to […] (Chen S 2004 and Kim WH recapitulate papers). For a negative control, the cells were untreated or treated with DMSO. The cells were treated with each compound for a total of 72 hours, and were further treated with each compound after 48 hours. The cytotoxicity of each compound could be confirmed from disappearance of a portion of the cells and from floating cell debris during culture, and a compound causing cytotoxicity was screened again at a concentration of 250 nM. After 72 hours, the medium was replaced with an osteogenic differentiation inducing medium (treated for 14 days with a DMEM supplemented with 10% FBS, […] ascorbic acid-2-phosphate, 0.1 μM dexamethasone, 10 mM β-glycerophosphate, 50 units/mL of penicillin, and […] streptomycin). The osteogenic differentiation inducing medium was based on one previously described in direct cell reprogramming (reversine papers, Chen S 2004 and Chen S 200/). Direct cell reprogramming from myocytes to osteocytes was analyzed by Alizarin red staining that detects calcium deposits (Gregory CA 2004 PMID: 15136169) in bone lineage cells.
Cells were washed once with PBS, and then fixed with phosphate-buffered formalin for 20 minutes. The fixed cells were washed with distilled water, and immersed in a solution of 1% Alizarin red-S in water for 5 minutes. The remaining dye was washed out with distilled water. The cells were dried, and then imaged with an optical microscope (CKX41 Olympus). The stained cells did look red, and a compound corresponding to such cells was selected as a ‘hit’ compound and further analyzed.

Data set [2] deals with C2C12 myoblasts. The experiment in a line: MTT assay (cytotoxicity). The data set is classed as cell-based, mouse. The note with it: for IC50: C2C12 myoblasts, incubated 2 days with compound; for cytotoxicity: result in words, comparison with the indazole derivatives. As to the method: C2C12 myoblasts were seeded in a 96-well plate at a density of 3×10^3 cells per well. The cells were cultured for one day, and then treated with each compound. Next, the cells were incubated for 2 days, and then treated with a serum-free medium containing 3-(4,5-dimethylthiazol-2-yl)-2,5-diphenyltetrazolium bromide (MTT) for 3 hours. After removal of the medium, the cells were incubated in DMSO for 10 minutes while they were shaken. The absorbance at 570 nm was measured by a microreader (VersaMax, Molecular Devices) (see FIG. 4).

The subject of data set [3] is adipocytes. The experiment in a line: Oil red O staining (differentiation into adipocytes). It is filed as cell-based. Details: key to Oil red O staining (adipocytes): ++ (strong positive); + (weak positive); − (negative). The note with it: for reprogramming potential in differentiation into adipocytes: oil red O staining, result in words.
Data set [4] has as its target T1, GSK-3β (Homo sapiens, UniProt P49841).
T1 construct: purchased Millipore (Billerica, Mass.)
Put plainly: HTRF kinase assay, GSK-3β. The following applies: 1 μM compound. The data set is classed as biochemical. As to the method:
(§1) The inhibitory activities of indazole derivatives against GSK-3 β and Aurora A were analyzed by HTRF (homogeneous time-resolved fluorescence) assay. The HTRF assay is an assay method that detects the phosphorylation of peptide substances in the presence of ATP. Phosphorylated substances were detected by TR-FRET (Time Resolved-Fluorescence Resonance) signals. Recombinant GSK-3 β and Aurora A kinase were purchased from Millipore (Billerica, Mass.). Using a HTRF KinEASE kit (Cisbio), the assay was performed. Each of GSK-3 β and Aurora A was treated with 1 μM of each indazole compound, and the degree of inhibition of phosphorylation was analyzed. The assay was composed of a compound-enzyme mixture and peptide substance dissolved in kinase reaction buffer (250 mM HEPES (pH 7.0), 0.5 mM orthovanadate, 0.05% BSA, 0.1% NaN3). After addition of detection buffer, the TR-FRET signal was detected by an EnVision multi-label reader.

Data set [5] deals with T2, Aurora A (Homo sapiens, UniProt O14965).
T2 construct: purchased Millipore (Billerica, Mass.)
T2 sequence (O14965 1-403): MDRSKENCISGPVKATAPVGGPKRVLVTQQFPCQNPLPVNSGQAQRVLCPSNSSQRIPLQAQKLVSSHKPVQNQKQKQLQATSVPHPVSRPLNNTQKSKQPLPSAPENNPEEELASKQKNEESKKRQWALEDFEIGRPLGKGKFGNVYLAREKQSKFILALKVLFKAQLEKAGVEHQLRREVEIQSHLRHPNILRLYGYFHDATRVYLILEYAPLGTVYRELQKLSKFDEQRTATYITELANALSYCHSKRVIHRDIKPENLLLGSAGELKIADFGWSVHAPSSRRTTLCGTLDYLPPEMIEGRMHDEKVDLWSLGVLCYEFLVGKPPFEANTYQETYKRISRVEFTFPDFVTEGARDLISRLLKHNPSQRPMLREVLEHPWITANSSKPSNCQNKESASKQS
The experiment in a line: HTRF kinase assay, Aurora A. It is filed as biochemical. The note with it: 1 μM compound. As to the method:
as §1
In general terms: In TR-FRET formats the signal depends on donor and acceptor labels being close together.

T1 sequence (P49841 whole entry, species assumed): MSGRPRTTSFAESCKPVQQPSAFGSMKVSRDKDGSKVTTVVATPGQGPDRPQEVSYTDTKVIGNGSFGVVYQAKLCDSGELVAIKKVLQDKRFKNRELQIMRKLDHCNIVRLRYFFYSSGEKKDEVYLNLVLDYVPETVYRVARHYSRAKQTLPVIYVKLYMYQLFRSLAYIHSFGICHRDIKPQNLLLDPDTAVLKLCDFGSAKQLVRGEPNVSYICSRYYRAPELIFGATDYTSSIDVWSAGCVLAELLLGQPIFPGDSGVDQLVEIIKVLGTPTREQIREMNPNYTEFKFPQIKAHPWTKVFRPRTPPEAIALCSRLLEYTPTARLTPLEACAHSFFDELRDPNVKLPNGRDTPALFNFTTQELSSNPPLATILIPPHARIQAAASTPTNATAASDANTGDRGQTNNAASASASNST

On to `CCCN1CCN(C(=O)c2ccc3[nH]nc(C(=NO)Nc4ccccc4)c3c2)CC1` [LDD-1987, N′-hydroxy-N-phenyl-5-(4-propylpiperazine-1-carbonyl)-1H-indazole-3-carboxamide], for which the “Alizarin red staining (osteoblasts)” value in data set [1] was “+”. Further, the IC50 (usually the midpoint of a concentration-inhibition curve) in data set [2] was over 10 µM. Moreover, in data set [3], the “Oil red O staining (adipocytes)” value was “++” and the “reprogramming potential in differentiation into adipocytes” value was “strong reprogramming potential”.
As to `O=C(c1ccc2[nH]nc(NC(=NO)c3ccccc3)c2c1)N1CCCCC1` [LDD-1945, N′-hydoxy-N-(5-(piperidine-1-carbonyl)-111-indazol-3-yl)benzimidamide], in data set [1], the “reprogramming potential in differentiation into osteoblasts” value is given as “strong reprogramming potential” and the “Alizarin red staining (osteoblasts)” value is “++”. Moreover, the IC50 in data set [2] is over 10 µM.
Take `COC(=O)c1ccc2[nH]nc(NC(=NO)c3ccccc3)c2c1` [LDD-2195, Methyl-3-(N′-hydroxybenzimidamido)-1H-indazole-5-carboxylate]: the concentration for half-maximal inhibition (IC50) in data set [2] (Mus musculus, 48 h) is over 10 µM.
As for `COc1ccc(NC(=NO)c2n[nH]c3ccc(C(=O)O)cc23)cc1` [LDD-2198, 3-(N′-hydroxy-N-(4-methoxyphenyl)carbaminidoyl)-1H-indazole-5-carboxylic Acid], in data set [2], the IC50 is over 10 µM.
For the compound `O=[N+]([O-])c1ccc2[nH]nc(NS(=O)(=O)c3ccccc3)c2c1` [LDD-1667, N-(5-nitro-111-indazol-3-yl)benzenesulfonamide], the % Inhibition (commonly the drop in the measured response relative to a control, in per cent) at 1 μM concentration, GSK-3β in data set [4] turned out to be 0%. Moreover, the “Alizarin red staining (osteoblasts)” value in data set [1] was “−”. In data set [5], the “% Inhibition at 1 μM concentration, Aurora-A” value (shortened to “% Inhibition … Aurora-A”) is given as 0%.
Turning to `O=C(c1ccc2[nH]nc(C(=NO)Nc3ccc(F)cc3)c2c1)N1CCCCC1` [LDD-2199, N-(4-fluorophenyl)-N′-hydroxy-5-(piperidine-1-carbonyl)-1H-indazole-3-carboxamide], in data set [1], the “reprogramming potential in differentiation into osteoblasts” value is reported as “strong reprogramming potential” and the “Alizarin red staining (osteoblasts)” value is “++”. The IC50 in data set [2] was over 10 µM.
Regarding `O=C(Nc1n[nH]c2ccc(C(=O)N3CCCCC3)cc12)c1ccccc1` [LDD-1820, N-(5-(piperidine-1-carbonyl)-1H-indazol-3-yl)benzamide], the inhibition at 1 µM in data set [4] (read-out: % Inhibition at 1 μM concentration, GSK-3β) stood at 0.5%; in data set [5] (read-out: % Inhibition at 1 μM concentration, Aurora-A) it was 32.5%. Also, in data set [1], the “Alizarin red staining (osteoblasts)” value is “−”.
As to `COCCN1CCN(C(=O)c2ccc3[nH]nc(C(=NO)Nc4ccccc4)c3c2)CC1` [LDD-1988, N′-hydroxy-5-(4-(2-methoxyethyl)piperazine-1-carbonyl)-N-phenyl-1H-indazole 3-carboximidamide], the “Alizarin red staining (osteoblasts)” value in data set [1] is “+”. Besides, the 50% inhibitory concentration (IC50) in data set [2] (Mus musculus, 48 h) was over 10 µM. In data set [3], the “Oil red O staining (adipocytes)” value is listed as “++” and the “reprogramming potential in differentiation into adipocytes” value is “strong reprogramming potential”.
Take `O=C(O)c1ccc2[nH]nc(C(=NO)Nc3ccc(F)cc3)c2c1` [LDD-2197, 3-N-(4-fluorophenyl)-N′-hydroxycarbamimidoyl-1H-indazole-5-carboxylic Acid]: the IC50 in data set [2] was over 10 µM.
For the compound `O=C(c1ccc2[nH]nc(C(=NO)Nc3ccccc3)c2c1)N1CCCCC1` [LDD-1821, N′-hydroxy-N-phenyl-5-(piperidine-1-carbonyl)-1H-indazole-3-carboxamide], the “% Inhibition at 1 μM concentration, GSK-3β” value (“% Inhibition … GSK-3β” below) in data set [4] (1 µM) was “no inhibitory activity”. Besides, the “% Inhibition … GSK-3β” value in data set [4] (listed as LDD1821, 1 µM) turned out to be 0.2%. Moreover, in data set [1], the “reprogramming potential in differentiation into osteoblasts” value is listed as “strong reprogramming potential” and the “Alizarin red staining (osteoblasts)” value is “++”. In addition, the concentration for half-maximal inhibition (IC50) in data set [2] is over 10 µM. For the same compound, in data set [5] (1 µM), the “% Inhibition … Aurora-A” value is on record as “no inhibitory activity”. In data set [5] (listed as LDD1821, 1 µM), the “% Inhibition … Aurora-A” value was found to be 0%. For the same compound, in data set [3], the “Oil red O staining (adipocytes)” value is reported as “++” and the “reprogramming potential in differentiation into adipocytes” value is recorded as “strong reprogramming potential”.
Consider `O=C(O)c1ccc2[nH]nc(C(=NO)Nc3ccccc3)c2c1` [LDD-1986, 3-(N′-hydroxy-N-phenylcarbamimidoyl)-1H-indazole-5-carboxylic Acid], for which, in data set [1], the “Alizarin red staining (osteoblasts)” value is reported as “+”. For the same compound, the IC50 in data set [2] (Mus musculus, 48 h) was over 10 µM. For the same compound, in data set [3], the “Oil red O staining (adipocytes)” value is “++” and the “reprogramming potential in differentiation into adipocytes” value is listed as “strong reprogramming potential”.
On to `COC(=O)c1ccc2[nH]nc(C(=NO)Nc3ccccc3)c2c1` [LDD-2196, Methyl-3-(N′-hydroxy-N-phenylcarbamimidoyl)-1H-indazole-5-carboxylate], for which the IC50 in data set [2] (Mus musculus, 48 h) is over 10 µM.
Consider `COc1ccc(NC(=NO)c2n[nH]c3ccc(C(=O)N4CCCCC4)cc23)cc1` [LDD-2200, N′-hydroxy-N-(4-methoxyphenyl)-5-(piperidine-1-carbonyl)-1H-indazole-3-carboxamide], for which, in data set [1], the “reprogramming potential in differentiation into osteoblasts” value is recorded as “strong reprogramming potential” and the “Alizarin red staining (osteoblasts)” value was “++”. Besides, the IC50 in data set [2] was over 10 µM.
Take `O=C(O)c1ccc2[nH]nc(NC(=NO)c3ccccc3)c2c1` [LDD-2194, 3-(N′-hydroxybenzimidamido)-1H-indazole-5-carboxylic Acid]: in data set [2] (Mus musculus, 48 h), the IC50 was over 10 µM.
Regarding `O=C1Nc2cc(Br)ccc2/C1=C1/Nc2ccccc2/C1=N\O` [BIO, reference compound], in data set [2], the cytotoxicity entry is recorded as “high cytotoxicity”.
As to `c1nc2nc(Nc3ccc(N4CCOCC4)cc3)nc(NC3CCCCC3)c2[nH]1` [Reversine, reference compound], in data set [1], the “reprogramming potential in differentiation into osteoblasts” value is listed as “strong reprogramming potential” and the “Alizarin red staining (osteoblasts)” value is on record as “++”. The cytotoxicity result in data set [2] is given as “high cytotoxicity”. For the same compound, the “Oil red O staining (adipocytes)” value in data set [3] was “++”.
For the compound `O=C(Nc1n[nH]c2ccc([N+](=O)[O-])cc12)c1ccccc1` [LDD-1664, N-(5-nitro-1(2)H-indazol-3-yl)-benzamide], the “% Inhibition … GSK-3β” value in data set [4] came out at 6.5%. In data set [1], the “reprogramming potential in differentiation into osteoblasts” value was “strong reprogramming potential” and the “Alizarin red staining (osteoblasts)” value is reported as “++”. Also, the “% Inhibition … Aurora-A” value in data set [5] stood at 0%.

The record behind these values is patent US10858321B2, “Composition for inducing cell reprogramming” (GWANGJU INSTITUTE OF SCIENCE AND TECHNOLOGY, priority 2014, dated 2020).
